# Source: the supplement of paper PMC10307832
# How the values were obtained:
# Assay in all cases: relative viability (nuclei count vs DMSO), 5 days (fraction); higher = more cells survive
# EMC-BAC-2 = system: EMC-BAC-2
# Method in brief: (§1)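 Lung cancer cell lines were seeded in 1536-well plates and dosed by pin tool the next day, with either a single drug or a fixed anchor-drug dose combined with five library-drug doses (not always all listed) spaced in √10 steps. Five days later, one step fixed the cells and stained their nuclei (final 0.05% Triton X-100, 1% formaldehyde, 1 ug/ml Hoechst), and nuclei were counted on 4× images. Relative viability is the nuclei count in treated wells divided by the count in vehicle wells, and each value is the median of duplicate plates.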
# EPLC-272H = system: EPLC-272H
# Method in brief: as §1
# H3255 = system: H3255
# Method in brief: as §1
# HOP-62 = system: HOP-62
# Method in brief: as §1
# LCLC-97TM1 = system: LCLC-97TM1
# Method in brief: as §1
# LXF-289 = system: LXF-289
# Method in brief: as §1
# NCI-H1563 = system: NCI-H1563
# Method in brief: as §1
# NCI-H1650 = system: NCI-H1650
# Method in brief: as §1
# NCI-H1915 = system: NCI-H1915
# Method in brief: as §1
# NCI-H1993 = system: NCI-H1993
# Method in brief: as §1
# NCI-H2009 = system: NCI-H2009
# Method in brief: as §1
# NCI-H2023 = system: NCI-H2023
# Method in brief: as §1
# NCI-H2085 = system: NCI-H2085
# Method in brief: as §1
# NCI-H2126 = system: NCI-H2126
# Method in brief: as §1
# NCI-H2342 = system: NCI-H2342
# Method in brief: as §1
# NCI-H2347 = system: NCI-H2347
# Method in brief: as §1
# NCI-H322M = system: NCI-H322M
# Method in brief: as §1
# NCI-H647 = system: NCI-H647
# Method in brief: as §1
# NCI-H661 = system: NCI-H661
# Method in brief: as §1
# NCI-H727 = system: NCI-H727
# Method in brief: as §1
# PC-14 = system: PC-14
# Method in brief: as §1
# SK-LU-1 = system: SK-LU-1
# Method in brief: as §1
# SW 1573 = system: SW 1573
# Method in brief: as §1
compound,measurement,setting,value
O=C(O)c1ccc(-c2c[nH]c3ncc(-c4ccccc4)cc23)cc1C1CCCC1 + CCNC(=O)c1noc(-c2cc(C(C)C)c(O)cc2O)c1-c1ccc(CN2CCOCC2)cc1 [Luminespib] (partner 0.01 µM),relative viability,EMC-BAC-2; first compound 0.04 µM,1.19
same,relative viability,EMC-BAC-2; first compound 0.1265 µM,1.16
same,relative viability,EMC-BAC-2; first compound 0.4 µM,1.13
same,relative viability,EMC-BAC-2; first compound 1.265 µM,0.975
same,relative viability,EPLC-272H; first compound 0.04 µM,0.628
same,relative viability,EPLC-272H; first compound 0.1265 µM,0.367
same,relative viability,EPLC-272H; first compound 0.4 µM,0.21
same,relative viability,EPLC-272H; first compound 1.265 µM,0.0951
same,relative viability,H3255; first compound 0.04 µM,0.978
same,relative viability,H3255; first compound 0.1265 µM,0.983
same,relative viability,H3255; first compound 0.4 µM,0.855
same,relative viability,H3255; first compound 1.265 µM,0.778
same,relative viability,HOP-62; first compound 0.04 µM,0.989
same,relative viability,HOP-62; first compound 0.1265 µM,0.997
same,relative viability,HOP-62; first compound 0.4 µM,0.86
same,relative viability,HOP-62; first compound 1.265 µM,0.737
same,relative viability,LCLC-97TM1; first compound 0.04 µM,0.858
same,relative viability,LCLC-97TM1; first compound 0.1265 µM,0.82
same,relative viability,LCLC-97TM1; first compound 0.4 µM,0.633
same,relative viability,LCLC-97TM1; first compound 1.265 µM,0.5
same,relative viability,LXF-289; first compound 0.04 µM,0.749
same,relative viability,LXF-289; first compound 0.1265 µM,0.614
same,relative viability,LXF-289; first compound 0.4 µM,0.484
same,relative viability,LXF-289; first compound 1.265 µM,0.171
same,relative viability,NCI-H1563; first compound 0.04 µM,0.489
same,relative viability,NCI-H1563; first compound 0.1265 µM,0.599
same,relative viability,NCI-H1563; first compound 0.4 µM,0.42
same,relative viability,NCI-H1563; first compound 1.265 µM,0.508
same,relative viability,NCI-H1650; first compound 0.04 µM,0.194
same,relative viability,NCI-H1650; first compound 0.1265 µM,0.17
same,relative viability,NCI-H1650; first compound 0.4 µM,0.196
same,relative viability,NCI-H1650; first compound 1.265 µM,0.197
same,relative viability,NCI-H1915; first compound 0.04 µM,0.784
same,relative viability,NCI-H1915; first compound 0.1265 µM,0.714
same,relative viability,NCI-H1915; first compound 0.4 µM,0.643
same,relative viability,NCI-H1915; first compound 1.265 µM,0.506
same,relative viability,NCI-H1993; first compound 0.04 µM,0.912
same,relative viability,NCI-H1993; first compound 0.1265 µM,0.831
same,relative viability,NCI-H1993; first compound 0.4 µM,0.795
same,relative viability,NCI-H1993; first compound 1.265 µM,0.612
same,relative viability,NCI-H2009; first compound 0.04 µM,1.05
same,relative viability,NCI-H2009; first compound 0.1265 µM,1.03
same,relative viability,NCI-H2009; first compound 0.4 µM,0.963
same,relative viability,NCI-H2009; first compound 1.265 µM,0.75
same,relative viability,NCI-H2023; first compound 0.04 µM,0.694
same,relative viability,NCI-H2023; first compound 0.1265 µM,1.01
same,relative viability,NCI-H2023; first compound 0.4 µM,0.75
same,relative viability,NCI-H2023; first compound 1.265 µM,0.34
same,relative viability,NCI-H2085; first compound 0.04 µM,0.441
same,relative viability,NCI-H2085; first compound 0.1265 µM,0.422
same,relative viability,NCI-H2085; first compound 0.4 µM,0.488
same,relative viability,NCI-H2085; first compound 1.265 µM,0.31
same,relative viability,NCI-H2126; first compound 0.04 µM,0.937
same,relative viability,NCI-H2126; first compound 0.1265 µM,0.955
same,relative viability,NCI-H2126; first compound 0.4 µM,0.796
same,relative viability,NCI-H2126; first compound 1.265 µM,0.619
same,relative viability,NCI-H2342; first compound 0.04 µM,0.773
same,relative viability,NCI-H2342; first compound 0.1265 µM,0.715
same,relative viability,NCI-H2342; first compound 0.4 µM,0.758
same,relative viability,NCI-H2342; first compound 1.265 µM,0.678
same,relative viability,NCI-H2347; first compound 0.04 µM,0.444
same,relative viability,NCI-H2347; first compound 0.1265 µM,0.794
same,relative viability,NCI-H2347; first compound 0.4 µM,0.275
same,relative viability,NCI-H2347; first compound 1.265 µM,0.408
same,relative viability,NCI-H322M; first compound 0.04 µM,0.901
same,relative viability,NCI-H322M; first compound 0.1265 µM,0.934
same,relative viability,NCI-H322M; first compound 0.4 µM,0.846
same,relative viability,NCI-H322M; first compound 1.265 µM,0.664
same,relative viability,NCI-H647; first compound 0.04 µM,0.148
same,relative viability,NCI-H647; first compound 0.1265 µM,0.152
same,relative viability,NCI-H647; first compound 0.4 µM,0.18
same,relative viability,NCI-H647; first compound 1.265 µM,0.16
same,relative viability,NCI-H661; first compound 0.04 µM,0.915
same,relative viability,NCI-H661; first compound 0.4 µM,0.905
same,relative viability,NCI-H661; first compound 1.265 µM,0.897
same,relative viability,NCI-H727; first compound 0.04 µM,0.325
same,relative viability,NCI-H727; first compound 0.1265 µM,0.41
same,relative viability,NCI-H727; first compound 0.4 µM,0.638
same,relative viability,NCI-H727; first compound 1.265 µM,0.281
same,relative viability,PC-14; first compound 0.04 µM,0.225
same,relative viability,PC-14; first compound 0.1265 µM,0.129
same,relative viability,PC-14; first compound 0.4 µM,0.141
same,relative viability,PC-14; first compound 1.265 µM,0.134
same,relative viability,SK-LU-1; first compound 0.04 µM,0.204
same,relative viability,SK-LU-1; first compound 0.1265 µM,0.196
same,relative viability,SK-LU-1; first compound 0.4 µM,0.231
same,relative viability,SK-LU-1; first compound 1.265 µM,0.179
same,relative viability,SW 1573; first compound 0.04 µM,0.563
same,relative viability,SW 1573; first compound 0.1265 µM,0.486
same,relative viability,SW 1573; first compound 0.4 µM,0.292
same,relative viability,SW 1573; first compound 1.265 µM,0.383
